The experiment has as its system E. coli Y1. Nature of the experiment: Therapeutic experiment, survival of E. coli-infected mice. It is filed as in vivo, KM mice. Particulars: within 72 h, 10 mice per group. As to the method:
The mice (female, 18–21 g) were randomly divided into 6 groups, with PBS dilution as the control group. A total of 1–5 groups were injected intraperitoneally with 0.5 mL of E. coli solution containing […] CFU/mL, respectively. After inoculation, the mice were observed continuously for 5 days, and the mortality rate was recorded. The minimum dose (LD 100) at which all mice die within 5 days was used as the optimal dose for the bacterial attack in this experiment.
In order to further evaluate the therapeutic potential of antimicrobial peptide C-LR18, a mouse model infected with E. coli was constructed in this study. The Km mice (female, 18–21 g) were maintained at constant room temperature [(25 ± 2) °C] with free access to food and water for 48 h. […] A total of 0.5 mL of E. coli Y1 suspension (10^9 CFU/m L) was intraperitoneally injected into each group of mice. One hour after challenge, different doses of C-LR18 (2.5 mg/kg, 5 mg/kg, and 7.5 mg/kg) and polymyxin B (5 mg/kg) were intraperitoneally injected into mice. The group injected with the same dose of physiological water was the control group.

The structures appear in SMILES notation. Where a SMILES comes first, the peptide text is derived from it. Bridges are numbered along the chain shown (N, C = ends).

`CC(C)C[C@@H]1NC(=O)[C@H](CCCNC(=N)N)NC(=O)[C@H](CCCNC(=N)N)NC(=O)[C@H](CC(C)C)NC(=O)[C@H](CC(C)C)NC(=O)[C@H](CCCNC(=N)N)NC(=O)[C@H](CC(C)C)NC(=O)[C@@H]2CCCN2C(=O)[C@H](CCCNC(=N)N)NC(=O)[C@H](CCCNC(=N)N)NC(=O)[C@@H]2CCCN2C(=O)[C@H](CC(C)C)NC(=O)[C@H](CCCNC(=N)N)NC(=O)[C@H](CC(C)C)NC(=O)[C@H](CC(C)C)NC(=O)[C@H](CCCNC(=N)N)NC(=O)[C@H](CCCNC(=N)N)NC(=O)[C@H](CC(C)C)NC(=O)[C@@H](N)CSSC[C@@H](C(=O)O)NC1=O` [C-LR18] (H-CLRRLLRLPRRPLRLLRRLC-OH; disulfide 1-20; N-terminus and C-terminus assumed): the “survival rate of mice” value (2.5 mg/kg ip 1 h after ip 0.5 mL E. coli Y1 10^9 CFU/mL) was 20%, the “survival rate of mice” value (5 mg/kg ip 1 h after ip 0.5 mL E. coli Y1 10^9 CFU/mL) is 40% and the “survival rate of mice” value (7.5 mg/kg ip 1 h after ip 0.5 mL E. coli Y1 10^9 CFU/mL) turned out to be 60%.

The values above are taken from paper PMC11939470, “The Cyclic Antimicrobial Peptide C-LR18 Has Enhanced Antibacterial Activity, Improved Stability, and a Longer Half-Life Compared to the Original Peptide” (Antibiotics, 2025).
